Assay results published in patent EP4455142A1, “NOVEL INHIBITOR OF QPCTL AND/OR QC” (Scenic Immunology B.V., priority 2023, dated 2024).

How the values were obtained:
[1] = CACO-2-based cell-permeation and efflux; type: in vitro ADME; conditions: human, 2 µM compound, pH 7.40; for Papp A→B at 2 h, 2 µM: Caco-2, pH 7.4, A2B; for Papp B→A at 2 h, 2 µM: Caco-2, pH 7.4, B2A
Procedure: CACO-2 (ATCC, Manassas, VA, USA) monolayers on polyethylene membranes in 96-well insert plates were incubated for 2 hours in 5% C02, 37°C with 2 µM compound tested bidirectionally in duplicate using HBSS with 10 mM HEPES at pH 7.40 ±0.05 as transport buffer. Final DMSO Concentrations were adjusted to less than 1%. All samples were mixed with acetonitrile containing internal standard and centrifuged at 3220 x g for 10 minutes. Subsequently, 100 µL supernatant solution was diluted with 100 µL distilled water for LC/MS/MS analysis. Lucifer yellow rejection assays were applied after the transport assay to ensure CACO-2 cell monolayer integrity.
The apparent permeability coefficient Papp (cm/s) was calculated using the equation: Papp = (dCr/dt) × Vr/(A×CO) [formula] where dCr/dt is the cumulative concentration of compound in the receiver chamber as a function of time (µM/s); Vr is the solution volume in the receiver chamber (0.075 mL on the apical side, 0.25 mL on the basolateral side); A is the surface area for the transport, i.e., 0.0804 cm^2 or the area of the monolayer; CO is the initial concentration in the donor chamber (µM).

[2] = Microsomal stability, human (HLM); type: in vitro ADME; conditions: liver microsomes, 0.5 mg protein/mL, 1 µM test compound
Procedure: (§1) In order to assess metabolic stability of test compounds, commercially acquired CD-1 mouse liver microsome preparations were incubated in 100 µL at a final concentration of 0.5 mg protein/mL, 1 µM test compound, 0.99% methanol and 0.01% DMSO, after a 10 minute pre-incubation at 37°C and addition of 0.1 volumes 10 U/mL NADPH in 10 mM MgCl2. Reactions were stopped by addition of 300 µL cold acetonitrile containing internal standards at t = 0, 5, 10, 20, 30, and 60 minutes. Samples were submitted to LC-MS/MS analysis subsequently and the slope of linear regression of time versus In(% Remaining concentration) was derived to calculate t½ as t½= In(2) /(-Slope). Then Clint(mic) and Clint(liver) were calculated as follows: CLint(mk) = (0.693)/(In vitro T1/2) · (1)/(mg/mL microsomal protein in reaction system) [formula] CLint(liver) = CLint(mic) · (mg microsomes)/(g liver) · (g liver)/(kg body weight) [formula]
The same procedure was performed for human microsomes, SD rat microsomes and (beagle) dog microsomes.
Where 45 mg microsomal protein/g liver and 20 g liver/kg human bodyweight were used as standardized parameters for human microsomes.

[3] = Microsomal stability, mouse (MLM); type: in vitro ADME, CD-1 mouse; conditions: mouse liver microsomes, 0.5 mg protein/mL, 1 µM test compound
Procedure: as §1
Where 45 mg microsomal protein/g liver and 88 g liver/kg mouse bodyweight were used as standardized parameters for mouse microsomes.

[4] = system: pyroglutamylated CD47; test: Assay 3 - cell-based potency assay (pyroglutamylation in live cells, total CD47/pE-CD47 dual staining, FACS); parameters: species or system human; conditions: IC50 of CC2C6 signal, KBM7 cells, 72 hours incubation
Procedure: Cells were spun for 4 minutes at 1500 rpm and washed once with PBS / 0.5% BSA. Cells were spun down again and the supernatant was removed and incubated in 100 uL antibody staining solution (PBS / 0.5% BSA / 0.1 µg/mL DAPI (4',6-diamidino-2-phenylindole, ThermoFisher Scientific) and a mixture of 1:500 FITC-conjugated anti-human CD47 clone 2D3, which recognizes total CD47 irrespective of its pyroglutamylation state, and 1:500 Alexa647-conjugated anti-human CD47 clone CC2C6, which specifically detects pyroglutamylated CD47) for 2 hours at 4°C. Next, the cells were spun down and washed twice with 2 x 150 µL PBS / 0.5% BSA to remove unbound antibody. Cells were again spun down and taken up in 300 µL FACS buffer before analysis on a Celesta FACS machine (BD Biosciences).
KBM7 cells (Kotecki et al., 1999) were infected with lentivirus produced by transfecting pSCNC-LentiCRISPR-QPCTL or pSCNC-LentiCRISPR-CD47 into HEK-293T cells according to standard protocols. After 24 hours incubation, cells were selected with puromycin (Invivogen, 1 µg/mL) for 48 hours. Cells were stained for total CD47 and pE-CD47 and QPCTL k.o. cells were sorted out as negative for pE-CD47, and CD47 k.o. cells as negative for total CD47, using a FACSAria III and FACS Diva software (BD Biosciences).
In order to test compounds for their effect on pyroglutamylation in live cells, 25000 KBM7 cells per well were seeded in a 96-well U-bottom plate in 150 µl IMDM / 10% FCS / 1% Pen / Strep medium and a 10-point 2-fold dilution range of test compounds. After 72 hours incubation at 37°C, 5% COz, cells were stained for total CD47 and pE-CD47 and analysed on a BD Celesta using FACS Diva software (BD Biosciences). Cells gated for DAPI negativity were recorded and the median fluorescence intensity (MFI) of each sample was transformed to linearly scale between the MFI's of wildtype and CD47 knockout cells (in case of the 2D3 antibody) and the wildtype and QPCTL knockout cells (in case of the CC2C6 antibody). ICso's were calculated by 3 parameter logistic regression of the CC2C6 signal vs. compound concentration, where the top of the sigmoidal curve was fixed at 1, using R and the drc package (http://www.r-project.org, https://cran.r-project.org/web/packages/drc/index.html).

Structure (SMILES)	Papp A→B at 2 h, 2 µM [1] [×10⁻⁶ cm/s]	Papp B→A at 2 h, 2 µM [1] [×10⁻⁶ cm/s]	CLint scaled at 1 µM [2] [mL/min/kg]	CLint scaled at 1 µM [3] [mL/min/kg]	IC50 [4] [nM]	IC50 ([4]; Homo sapiens, KBM-7, 72 h) [nM]
O=C1OCC(c2ccc(N3CCCC3)cc2)N1c1ccc2[nH]cnc2c1 (single isomer, unassigned) [(18)-ent2]	2.8	18.8	73.8	488	3490	–
O=C1OCC(c2ccc(C3CCC(F)(F)CC3)cc2)N1c1ccc2[nH]cnc2c1 (single isomer, unassigned) [(19)-ent2]	3.9	23.9	19.7	339	3730	–
O=C1OC[C@H](c2ccc(-c3cnn(C(F)(F)F)c3)cc2F)N1c1ccc2[nH]cnc2c1 [Compound (1)]	2	21.9	< 8.6	67.5	–	92.1
